Test results reported in patent US20220017444A1, “BENZ[…] SURFACTANTS” (INDORAMA VENTURES OXIDES LLC, priority 2018, published 2022).

Test: Surface tensiometer characterization: critical micelle concentration and surface tension
Format: physicochemical
Details: surface tensiometer; FIG. 2
Description: Dibenzhydryl resorcinol ethoxylates produced in Example 2 were characterized using a surface tensiometer to determine critical micelle concentration and surface tension.

Dibenzhydryl Resorcinol Ethoxylate
critical micelle concentration: 4 ppm
